Series [1] in a line: AUC (0 to infinity) in BALB/c mouse at 50 mg/kg, ip administered as liposome encapsulated form and measured upto 24 hrs by LC-MS/MS analysis. Particulars: in vivo. The format is ADME, organism-based.
Series [2] can be described thus: Apparent clearance in BALB/c mouse at 25 mg/kg, ip administered as liposome encapsulated form and measured upto 24 hrs by LC-MS/MS analysis. The format is ADME, organism-based. The settings on record: in vivo, read-out: CL(app) (converted).
The subject of another series is A549. Nature of the series: Antiproliferative activity against human A549 cells assessed as reduction in cell viability incubated for 72 hrs by MTT assay. The format is functional, cell-based. The settings on record: A549, 72 h. (Tetrazolium dyes change colour on reduction, which living cells bring about.)
Series [3] in a line: Cmax in BALB/c mouse at 25 mg/kg, ip administered as liposome encapsulated form and measured upto 24 hrs by LC-MS/MS analysis. The format is ADME, organism-based. The settings on record: in vivo.
Series [4] in a line: Toxicity against BALB/c nude mouse xenografted with human U87 cells assessed as change in body weight at 12.5 to 50 mg/kg/day administered as liposome encapsulated form for 15 days. It is filed as organism-based, U-87MG ATCC. The settings on record: in vivo, 360 h, dose 12.5-50 mg/kg/day, time 15 day. For orientation: Xenograft models place foreign cells or tissue in a host animal.

The next series deals with U-87 MG. The experiment in a line: Antiproliferative activity against human U87 cells assessed as reduction in cell viability incubated for 72 hrs by MTT assay. The format is functional, cell-based, U-87MG ATCC.
Series [5] is described as follows: Cmax in BALB/c mouse at 12.5 mg/kg, ip administered as liposome encapsulated form and measured upto 24 hrs by LC-MS/MS analysis. It is filed as ADME, organism-based. The settings on record: in vivo.
Series [6] can be described thus: Tmax in BALB/c mouse at 12.5 mg/kg, ip administered as liposome encapsulated form measured upto 24 hrs by LC-MS/MS analysis. The format is ADME, organism-based. The settings on record: in vivo.
The target of series [7] is T1, Short transient receptor potential channel 4 (Mus musculus, UniProt Q9QUQ5).
T1 sequence (Q9QUQ5 whole entry): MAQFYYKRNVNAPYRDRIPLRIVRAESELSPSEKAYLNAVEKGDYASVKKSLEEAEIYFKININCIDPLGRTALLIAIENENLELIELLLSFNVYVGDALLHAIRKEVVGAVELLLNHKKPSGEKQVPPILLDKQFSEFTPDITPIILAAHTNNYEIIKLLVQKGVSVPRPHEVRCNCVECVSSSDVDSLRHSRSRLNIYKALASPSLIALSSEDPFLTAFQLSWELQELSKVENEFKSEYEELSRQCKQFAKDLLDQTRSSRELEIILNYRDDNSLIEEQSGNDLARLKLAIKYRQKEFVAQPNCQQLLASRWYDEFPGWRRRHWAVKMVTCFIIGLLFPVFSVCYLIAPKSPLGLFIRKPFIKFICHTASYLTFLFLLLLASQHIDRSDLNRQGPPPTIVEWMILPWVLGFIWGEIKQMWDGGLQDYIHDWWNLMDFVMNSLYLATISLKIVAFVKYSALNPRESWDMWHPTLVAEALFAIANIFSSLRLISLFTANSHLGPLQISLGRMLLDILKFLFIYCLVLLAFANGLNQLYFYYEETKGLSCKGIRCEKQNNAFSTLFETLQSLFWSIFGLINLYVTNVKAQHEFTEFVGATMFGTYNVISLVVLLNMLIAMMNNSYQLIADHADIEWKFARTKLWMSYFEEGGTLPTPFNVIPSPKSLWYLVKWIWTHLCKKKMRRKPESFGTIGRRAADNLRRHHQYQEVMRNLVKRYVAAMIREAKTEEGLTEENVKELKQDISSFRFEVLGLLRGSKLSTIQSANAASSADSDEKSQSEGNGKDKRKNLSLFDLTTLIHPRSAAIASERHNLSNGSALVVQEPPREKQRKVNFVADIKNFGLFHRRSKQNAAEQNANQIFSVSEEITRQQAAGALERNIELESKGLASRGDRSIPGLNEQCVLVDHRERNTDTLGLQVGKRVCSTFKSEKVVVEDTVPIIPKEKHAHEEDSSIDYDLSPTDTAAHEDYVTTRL
Nature of the series: Antagonist activity at mouse TRPC4 stably expressed in HEK293 cells inhibition of calcium influx by calcium fluorescence assay. The format is cell-based.

Series [8] is described as follows: Terminal half life in BALB/c mouse at 25 mg/kg, ip administered as liposome encapsulated form and measured upto 24 hrs by LC-MS/MS analysis. It is filed as ADME, organism-based. Particulars: in vivo, read-out: beta t1/2 (converted).
Series [9] is described as follows: Apparent clearance in BALB/c mouse at 50 mg/kg, ip administered as liposome encapsulated form and measured upto 24 hrs by LC-MS/MS analysis. Particulars: in vivo, read-out: CL(app) (converted). It is filed as ADME, organism-based.
Series [10] is described as follows: AUC (0 to t) in BALB/c mouse at 12.5 mg/kg, ip administered as liposome encapsulated form and measured upto 24 hrs by LC-MS/MS analysis. It is filed as ADME, organism-based. The settings on record: in vivo.
Series [11] in a line: AUC (0 to t) in BALB/c mouse at 50 mg/kg, ip administered as liposome encapsulated form and measured upto 24 hrs by LC-MS/MS analysis. The format is ADME, organism-based. The settings on record: in vivo.
Series [12] deals with T2, Short transient receptor potential channel 6 (Mus musculus, UniProt Q61143).
T2 sequence (Q61143 whole entry): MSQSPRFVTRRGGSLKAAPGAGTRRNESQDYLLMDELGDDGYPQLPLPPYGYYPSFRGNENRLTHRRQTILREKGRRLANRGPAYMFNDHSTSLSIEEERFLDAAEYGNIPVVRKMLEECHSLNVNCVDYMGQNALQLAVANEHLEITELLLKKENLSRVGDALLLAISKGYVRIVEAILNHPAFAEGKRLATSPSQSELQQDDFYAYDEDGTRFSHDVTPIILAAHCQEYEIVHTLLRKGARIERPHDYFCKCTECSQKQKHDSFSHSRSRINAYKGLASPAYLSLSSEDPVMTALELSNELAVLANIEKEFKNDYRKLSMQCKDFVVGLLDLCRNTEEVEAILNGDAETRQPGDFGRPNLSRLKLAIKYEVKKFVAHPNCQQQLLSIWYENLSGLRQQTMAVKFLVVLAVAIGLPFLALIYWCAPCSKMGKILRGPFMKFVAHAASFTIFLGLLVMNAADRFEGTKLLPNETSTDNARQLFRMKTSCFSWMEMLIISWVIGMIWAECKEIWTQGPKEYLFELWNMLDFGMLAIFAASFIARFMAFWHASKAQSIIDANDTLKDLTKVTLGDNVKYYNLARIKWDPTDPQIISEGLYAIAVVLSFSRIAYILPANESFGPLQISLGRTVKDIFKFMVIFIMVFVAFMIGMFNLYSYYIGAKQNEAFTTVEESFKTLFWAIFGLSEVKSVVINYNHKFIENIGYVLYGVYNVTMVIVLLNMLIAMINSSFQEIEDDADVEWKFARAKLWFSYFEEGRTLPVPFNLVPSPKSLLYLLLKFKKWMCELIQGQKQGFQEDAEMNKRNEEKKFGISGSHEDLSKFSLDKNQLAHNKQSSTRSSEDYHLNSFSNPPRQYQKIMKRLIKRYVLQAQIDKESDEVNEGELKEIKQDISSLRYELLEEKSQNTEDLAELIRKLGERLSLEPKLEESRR
Nature of the series: Antagonist activity at mouse TRPC6 stably expressed in HEK293 cells inhibition of calcium influx by calcium fluorescence assay. It is filed as cell-based.

The nature of series [13]: Selectivity index, ratio of IC50 for human MKN-45 cells to IC50 for human U87 cells. It is filed as functional.
Series [14] is described as follows: Terminal half life in BALB/c mouse at 12.5 mg/kg, ip administered as liposome encapsulated form and measured upto 24 hrs by LC-MS/MS analysis. The format is ADME, organism-based. Particulars: in vivo, read-out: beta t1/2 (converted).

Usually AUC(0-inf) stands for total exposure, with the tail of the curve extrapolated. In general, IC50 refers to the concentration that inhibits the measured activity by half. For orientation: Cmax means the maximum level reached in the sampled fluid or tissue. Usually Tmax stands for the time from dosing to the highest level. In general, AUC(0-t) refers to exposure summed from dosing to a finite time, without extrapolation to infinity.

The molecule `NCCN(Cc1ccc2ccccc2c1)c1nc(C(=O)Nc2ccc(O)cc2)cs1` returned an AUC(0-inf) in series [1] of 16800 ng·h/mL. For the same molecule, the CL/F in series [2] is 60.2 mL/min/kg; in series [9] it was 49.6 mL/min/kg. The IC50 in the series with A549 stood at 21.1 µM; with U-87 MG it was 5.7 µM; in series [7], 12.2 µM; in [12], 2900 nM. The figures for the Cmax in [3] and in [5] were 1220 ng/mL and 288 ng/mL, respectively. The Activity entry in [4] is “Non-Toxic”. The Tmax in series [6] worked out at 4 h. Also, the half-life in series [8] is 204 min; in series [14], 408 min. The AUC(0-t) at 24 h in [10] was found to be 2550 ng·h/mL; in series [11] it was 16600 ng·h/mL. Besides, in [13], the “Ratio IC50” value is 2.

The record behind these values is ChEMBL document CHEMBL5518193, “Discovery of N-alkyl-N-benzyl thiazoles as novel TRPC antagonists for the treatment of glioblastoma multiforme” (Eur J Med Chem, 2024).
